Laboratory results as given in the supplement of paper PMC10307832.

How the values were obtained:
Assay in all cases: relative viability (nuclei count vs DMSO), 5 days (fraction); higher = more cells survive
[1] = compound: C1CC(C1)(C(=O)O)C(=O)O.[NH2-].[NH2-].[Pt+2] [Carboplatin] + CC(=O)c1c(C)c2cnc(Nc3ccc(N4CCNCC4)cn3)nc2n(C2CCCC2)c1=O [Palbociclib] (partner 0.5 µM)
Procedure, shortened: (§1)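 Relative viability equals treated-well nuclei counts divided by vehicle-well nuclei counts. Counts came from 4× images of lung cancer cell lines grown in 1536-well plates for 5 days after pin-tool dosing on the day after seeding. Dosing used one drug alone or a fixed anchor-drug dose plus five library-drug doses (not always all listed) in √10 steps, and values are medians of duplicate plates.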

Carboplatin + Luminespib = compound: C1CC(C1)(C(=O)O)C(=O)O.[NH2-].[NH2-].[Pt+2] [Carboplatin] + CCNC(=O)c1noc(-c2cc(C(C)C)c(O)cc2O)c1-c1ccc(CN2CCOCC2)cc1 [Luminespib] (partner 0.01 µM)
Procedure, shortened: as §1

GSK126 + Vorinostat = compound: CC[C@H](C)N1C=C(C2=C(C=C(C=C21)C3=CN=C(C=C3)N4CCNCC4)C(=O)NCC5=C(C=C(NC5=O)C)C)C [GSK126] + O=C(CCCCCCC(=O)Nc1ccccc1)NO [Vorinostat] (partner 1 µM)
Procedure, shortened: as §1

Carboplatin + Olaparib = compound: C1CC(C1)(C(=O)O)C(=O)O.[NH2-].[NH2-].[Pt+2] [Carboplatin] + O=C(c1cc(Cc2n[nH]c(=O)c3ccccc23)ccc1F)N1CCN(C(=O)C2CC2)CC1 [Olaparib] (partner 8 µM)
Procedure, shortened: as §1

UMC-11
relative viability ([1]; first compound 0.08 µM): 0.314 | relative viability ([1]; first compound 0.253 µM): 0.348 | relative viability ([1]; first compound 0.8 µM): 0.275 | relative viability ([1]; first compound 2.53 µM): 0.301 | relative viability ([1]; first compound 8 µM): 0.339 | relative viability (Carboplatin + Luminespib; first compound 0.08 µM): 0.961 | relative viability (Carboplatin + Luminespib; first compound 0.253 µM): 1.01 | relative viability (Carboplatin + Luminespib; first compound 0.8 µM): 1 | relative viability (Carboplatin + Luminespib; first compound 2.53 µM): 0.955 | relative viability (Carboplatin + Luminespib; first compound 8 µM): 0.651 | relative viability (GSK126 + Vorinostat; first compound 0.08 µM): 0.409 | relative viability (GSK126 + Vorinostat; first compound 0.253 µM): 0.381 | relative viability (GSK126 + Vorinostat; first compound 0.8 µM): 0.356 | relative viability (GSK126 + Vorinostat; first compound 2.53 µM): 0.459 | relative viability (GSK126 + Vorinostat; first compound 8 µM): 0.341 | relative viability (Carboplatin + Olaparib; first compound 0.08 µM): 0.72 | relative viability (Carboplatin + Olaparib; first compound 0.253 µM): 0.573 | relative viability (Carboplatin + Olaparib; first compound 0.8 µM): 0.433 | relative viability (Carboplatin + Olaparib; first compound 2.53 µM): 0.381 | relative viability (Carboplatin + Olaparib; first compound 8 µM): 0.345
